The supplement of paper PMC8443649
± gives the standard deviation of the averaged measurements.

Tested on: PATU8988T-SmBKRAS-LgBCRAF
Experiment: KRAS:CRAF interaction luminescence (EndoBind) relative to DMSO control (fold of DMSO); higher = more KRAS-CRAF complex
Description: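 EndoBind assay: PATU8988T cells with CRISPR knock-in SmB-KRAS(G12V) and LgB-CRAF, seeded with RealTime-Glo pro-substrate (1:2000) in 384-well plates. Cells were treated with RAF inhibitors (GDC0879, LY3009120, NVP-LHS533) or the MEK inhibitor Selumetinib, and the same plate was read for split-NanoLuc luminescence at several time points. Signal is normalised to the DMSO-treated wells at each time point; n=3 wells.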

CNc1ncc2cc(-c3cc(NC(=O)NCCC(C)(C)C)c(F)cc3C)c(C)nc2n1
KRAS:CRAF interaction luminescence
Settings	time after treatment 0 h	time after treatment 1 h	time after treatment 4 h	time after treatment 6 h	time after treatment 9 h	time after treatment 12 h
0.00375 µM	0.987 ± 0.034	0.979 ± 0.063	1.01 ± 0.04	1.05 ± 0.021	1.09 ± 0.011	1.15 ± 0.03
0.0075 µM	0.976 ± 0.044	0.98 ± 0.073	1.04 ± 0.044	1.1 ± 0.045	1.15 ± 0.035	1.24 ± 0.066
0.015 µM	0.996 ± 0.025	0.98 ± 0.041	1.07 ± 0.038	1.16 ± 0.035	1.22 ± 0.035	1.32 ± 0.034
0.03 µM	0.983 ± 0.043	0.968 ± 0.031	1.14 ± 0.029	1.24 ± 0.022	1.35 ± 0.016	1.45 ± 0.04
0.06 µM	1 ± 0.017	0.994 ± 0.032	1.21 ± 0.06	1.34 ± 0.029	1.46 ± 0.031	1.58 ± 0.051
0.12 µM	1 ± 0.013	0.996 ± 0.027	1.26 ± 0.019	1.42 ± 0.02	1.58 ± 0.049	1.7 ± 0.058
0.24 µM	0.955 ± 0.037	0.991 ± 0.049	1.35 ± 0.049	1.57 ± 0.039	1.76 ± 0.044	1.96 ± 0.073
0.46875 µM	0.987 ± 0.03	1.03 ± 0.045	1.42 ± 0.05	1.67 ± 0.077	1.84 ± 0.079	2.05 ± 0.074
0.9375 µM	0.982 ± 0.039	1.06 ± 0.033	1.51 ± 0.031	1.75 ± 0.075	1.91 ± 0.06	2.07 ± 0.097
1.875 µM	1 ± 0.039	1.09 ± 0.053	1.54 ± 0.043	1.8 ± 0.05	1.91 ± 0.049	2.07 ± 0.087
3.75 µM	0.971 ± 0.057	1.08 ± 0.068	1.59 ± 0.058	1.77 ± 0.048	1.89 ± 0.093	2.04 ± 0.11
7.5 µM	1.03 ± 0.021	1.16 ± 0.088	1.57 ± 0.016	1.74 ± 0.052	1.8 ± 0.053	1.92 ± 0.043
15 µM	1.03 ± 0.032	1.14 ± 0.094	1.47 ± 0.031	1.59 ± 0.037	1.62 ± 0.045	1.78 ± 0.071
30 µM	–	–	1.13 ± 0.019	–	–	–

OCCn1cc(-c2ccc3c(c2)CC/C3=N\O)c(-c2ccncc2)n1 [GDC0879]
KRAS:CRAF interaction luminescence
Settings	time after treatment 0 h	time after treatment 1 h	time after treatment 4 h	time after treatment 6 h	time after treatment 9 h	time after treatment 12 h
0.00375 µM	0.967 ± 0.056	0.989 ± 0.093	0.964 ± 0.033	0.967 ± 0.014	0.958 ± 0.027	0.9832 ± 0.0088
0.0075 µM	1.03 ± 0.04	1.03 ± 0.083	0.976 ± 0.026	0.964 ± 0.021	0.958 ± 0.042	0.982 ± 0.023
0.015 µM	0.987 ± 0.079	1.03 ± 0.11	0.985 ± 0.04	0.966 ± 0.028	0.953 ± 0.042	0.969 ± 0.037
0.03 µM	0.989 ± 0.054	1.1 ± 0.11	1.03 ± 0.027	1.03 ± 0.027	1.01 ± 0.029	1.01 ± 0.015
0.06 µM	0.977 ± 0.056	1.22 ± 0.073	1.1 ± 0.034	1.09 ± 0.03	1.07 ± 0.03	1.08 ± 0.03
0.12 µM	0.964 ± 0.076	1.27 ± 0.075	1.19 ± 0.055	1.18 ± 0.045	1.14 ± 0.026	1.16 ± 0.024
0.24 µM	0.983 ± 0.051	1.4 ± 0.056	1.4 ± 0.043	1.38 ± 0.024	1.36 ± 0.056	1.36 ± 0.093
0.46875 µM	1.01 ± 0.032	1.5 ± 0.11	1.62 ± 0.046	1.61 ± 0.048	1.58 ± 0.06	1.59 ± 0.07
0.9375 µM	1.01 ± 0.051	1.53 ± 0.076	1.75 ± 0.059	1.81 ± 0.052	1.74 ± 0.063	1.78 ± 0.1
1.875 µM	1.03 ± 0.028	1.56 ± 0.065	1.83 ± 0.083	1.92 ± 0.071	1.87 ± 0.11	1.86 ± 0.18
3.75 µM	1.03 ± 0.031	1.54 ± 0.12	1.85 ± 0.048	1.93 ± 0.031	1.9 ± 0.046	1.99 ± 0.083
7.5 µM	1.05 ± 0.046	1.54 ± 0.074	1.87 ± 0.04	1.98 ± 0.037	1.95 ± 0.059	2.05 ± 0.076
15 µM	1.02 ± 0.082	1.46 ± 0.14	1.8 ± 0.029	1.99 ± 0.051	2.03 ± 0.11	2.15 ± 0.2
30 µM	–	–	1.66 ± 0.063	–	–	–

Cn1cnc2c(F)c(Nc3ccc(Br)cc3Cl)c(C(=O)NOCCO)cc21 [Selumetinib]
KRAS:CRAF interaction luminescence
Settings	time after treatment 0 h	time after treatment 1 h	time after treatment 4 h	time after treatment 6 h	time after treatment 9 h	time after treatment 12 h
0.00375 µM	0.968 ± 0.07	0.983 ± 0.066	0.958 ± 0.032	0.954 ± 0.037	0.937 ± 0.023	0.963 ± 0.028
0.0075 µM	0.975 ± 0.058	0.977 ± 0.067	0.949 ± 0.036	0.931 ± 0.021	0.943 ± 0.042	0.974 ± 0.051
0.015 µM	1.01 ± 0.029	0.979 ± 0.075	0.958 ± 0.031	0.953 ± 0.018	0.939 ± 0.043	0.934 ± 0.037
0.03 µM	0.961 ± 0.069	0.971 ± 0.072	0.973 ± 0.017	0.97 ± 0.028	0.956 ± 0.036	0.965 ± 0.03
0.06 µM	0.995 ± 0.049	0.976 ± 0.069	0.976 ± 0.018	0.935 ± 0.025	0.945 ± 0.03	0.984 ± 0.013
0.12 µM	0.994 ± 0.057	0.979 ± 0.064	0.974 ± 0.013	0.975 ± 0.025	0.948 ± 0.04	0.973 ± 0.031
0.24 µM	0.994 ± 0.029	0.993 ± 0.07	0.988 ± 0.018	0.975 ± 0.023	0.96 ± 0.037	0.963 ± 0.04
0.46875 µM	1 ± 0.043	0.995 ± 0.069	1 ± 0.02	0.985 ± 0.031	0.982 ± 0.017	0.992 ± 0.028
0.9375 µM	1.01 ± 0.045	1.04 ± 0.071	1.02 ± 0.025	1.03 ± 0.035	0.994 ± 0.027	1.01 ± 0.043
1.875 µM	0.978 ± 0.05	1.07 ± 0.084	1.06 ± 0.029	1.06 ± 0.043	1.04 ± 0.048	1.06 ± 0.068
3.75 µM	0.99 ± 0.061	1.14 ± 0.099	1.12 ± 0.013	1.1 ± 0.031	1.1 ± 0.03	1.11 ± 0.063
7.5 µM	1.01 ± 0.11	1.02 ± 0.12	1 ± 0.032	0.995 ± 0.034	0.981 ± 0.033	0.998 ± 0.035
15 µM	1.02 ± 0.059	1.02 ± 0.1	1 ± 0.02	0.983 ± 0.032	0.974 ± 0.024	0.987 ± 0.043
30 µM	–	–	0.953 ± 0.019	–	–	–
